Reference: ChEMBL document CHEMBL5108019, “Discovery of a novel Pleuromutilin derivative as anti-IPF lead compound via high-throughput assay” (Eur J Med Chem, 2022)
Calls of active or inactive are those of the source. The rule behind the calls is not given here.

How the values were obtained:
[1] = molecular target: Transforming growth factor beta-1 proprotein/Mothers against decapentaplegic homolog 3 (Mus musculus) (UniProt P04202+Q8BUN5); assay: Inhibition of TGF-beta1/Smad3 signalling in TGF-beta1 treated mouse NIH3T3 cells transfected with (CAGA)12-Lux reporter gene assessed as suppressive ratio at 10 uM incubated for 18 hrs by luciferase based analysis relative to control; assay type: cell-based; parameters: scale not given: the % may be the effect or the level left
Staphylococcus aureus = assay: Antibacterial activity against Staphylococcus aureus assessed as bacterial growth inhibition incubated for 24 hrs; assay type: functional
Escherichia coli = assay: Antibacterial activity against Escherichia coli assessed as bacterial growth inhibition incubated for 24 hrs; assay type: functional
Bacillus subtilis = assay: Antibacterial activity against Bacillus subtilis assessed as bacterial growth inhibition incubated for 24 hrs; assay type: functional
[2] = Inhibition of TGF-beta1 induced cell proliferation in mouse MLg cells measured after 24 hrs by MTT assay; assay type: functional, cell-based
[3] = molecular target: Transforming growth factor beta-1 proprotein/Mothers against decapentaplegic homolog 3 (Mus musculus, UniProt P04202+Q8BUN5); assay: Inhibition of TGF-beta1/Smad3 signalling in TGF-beta1 treated mouse NIH3T3 cells transfected with (CAGA)12-Lux reporter gene incubated for 18 hrs by luciferase based analysis; assay type: cell-based
[4] = Cmax in Sprague-Dawley rat at 10 mg/kg, iv measured for 12 hrs by LC-MS/MS analysis; assay type: ADME, organism-based; parameters: dose 10 mg/kg, time 12 hrs, route iv; details: in vivo
[5] = AUC (0 to t) in Sprague-Dawley rat at 10 mg/kg, iv measured for 12 hrs by LC-MS/MS analysis; assay type: ADME, organism-based; parameters: dose 10 mg/kg, time 12 hrs, route iv; details: in vivo
[6] = Tmax in Sprague-Dawley rat at 10 mg/kg, iv measured for 12 hrs by LC-MS/MS analysis; assay type: ADME, organism-based; details: in vivo
[7] = Half life in Sprague-Dawley rat at 10 mg/kg, iv measured for 12 hrs by LC-MS/MS analysis; assay type: ADME, organism-based; details: in vivo
[8] = Clearance in Sprague-Dawley rat at 10 mg/kg, iv measured for 12 hrs by LC-MS/MS analysis; assay type: ADME, organism-based; details: in vivo
[9] = Cmax in Sprague-Dawley rat at 100 mg/kg, po measured for 18 hrs by LC-MS/MS analysis; assay type: ADME, organism-based; parameters: dose 100 mg/kg, time 18 hrs, route po; details: in vivo
[10] = AUC (0 to t) in Sprague-Dawley rat at 100 mg/kg, po measured for 18 hrs by LC-MS/MS analysis; assay type: ADME, organism-based; parameters: dose 100 mg/kg, time 18 hrs, route po; details: in vivo
[11] = Tmax in Sprague-Dawley rat at 100 mg/kg, po measured for 18 hrs by LC-MS/MS analysis; assay type: ADME, organism-based; details: in vivo
[12] = Half life in Sprague-Dawley rat at 100 mg/kg, po measured for 18 hrs by LC-MS/MS analysis; assay type: ADME, organism-based; details: in vivo
[13] = Clearance in Sprague-Dawley rat at 100 mg/kg, po measured for 18 hrs by LC-MS/MS analysis; assay type: ADME, organism-based; details: in vivo
[14] = Oral bioavailability in Sprague-Dawley rat at 100 mg/kg measured for 18 hrs by LC-MS/MS analysis; assay type: ADME, organism-based; details: in vivo
[15] = Toxicity in C57BL/6 mouse assessed as animal survival at 1000 mg/kg, IG administered as single dose; assay type: organism-based; details: in vivo, po
[16] = Toxicity in C57BL/6 mouse assessed as animal survival at 500 mg/kg, IG administered once every day for 7 days; assay type: organism-based; details: in vivo, po, 168 h, time 7 day
[17] = Toxicity in C57BL/6 mouse assessed as animal survival at 500 mg/kg, po administered once every day for 30 days; assay type: organism-based; details: in vivo, 720 h, time 30 day
[18] = Toxicity in C57BL/6 mouse assessed as toxic symptoms at 500 mg/kg, po administered once every day for 30 days; assay type: organism-based; details: in vivo, 720 h, time 30 day
Mus musculus [19] = assay: Antifibrotic activity against BLM-induced pulmonary fibrosis in C57BL/6 mouse model assessed as improvement in pulmonary alveolar structure damage at 100 to 200 mg/kg, po administered once daily starting from day 7 post BLM treatment and measured on day 14 by H and E staining based analysis; assay type: functional, organism-based; details: dose 100-200 mg/kg, time 14.0 day
Mus musculus [20] = assay: Antifibrotic activity against BLM-induced pulmonary fibrosis in C57BL/6 mouse model assessed as improvement in forced vital capacity at 200 mg/kg, po administered once daily starting from day 7 post BLM treatment and measured on day 14 by plethysmography chamber based pulmonary function analysis; assay type: functional; details: time 14 day
Mus musculus [21] = assay: Antifibrotic activity against BLM-induced pulmonary fibrosis in C57BL/6 mouse model assessed as improvement in dynamic compliance at 200 mg/kg, po administered once daily starting from day 7 post BLM treatment and measured on day 14 by plethysmography chamber based pulmonary function analysis; assay type: functional; details: time 14 day
Mus musculus [22] = assay: Antifibrotic activity against BLM-induced pulmonary fibrosis in C57BL/6 mouse model assessed as improvement in inspiratory resistance at 200 mg/kg, po administered once daily starting from day 7 post BLM treatment and measured on day 14 by plethysmography chamber based pulmonary function analysis; assay type: functional; details: time 14 day
Mus musculus [23] = assay: Antifibrotic activity against BLM-induced pulmonary fibrosis in C57BL/6 mouse model assessed as improvement in expiratory resistance at 200 mg/kg, po administered once daily starting from day 7 post BLM treatment and measured on day 14 by plethysmography chamber based pulmonary function analysis; assay type: functional, organism-based; details: time 14.0 day
Mus musculus [24] = assay: (§1) Antifibrotic activity against BLM-induced pulmonary fibrosis in C57BL/6 mouse model assessed as reduction in fibrosis region at 200 mg/kg, po administered once daily starting from day 7 post BLM treatment and measured on day 14 by hematoxylin-eosin and Masson trichrome staining based analysis relative to control; assay type: functional, organism-based; details: time 14.0 day
Mus musculus [25] = assay: as §1, with “100” for “200”; assay type: functional, organism-based; details: time 14.0 day
Mus musculus [26] = assay: Antifibrotic activity against BLM-induced pulmonary fibrosis in C57BL/6 mouse model assessed as reduction in collagen content in lungs at 100 to 200 mg/kg, po administered once daily starting from day 7 post BLM treatment and measured on day 14 by hydroxyproline method; assay type: functional, organism-based; details: dose 100-200 mg/kg, time 14.0 day
Mus musculus [27] = assay: Antifibrotic activity against BLM-induced pulmonary fibrosis in C57BL/6 mouse model assessed as reduction in extracellular matrix generation at 200 mg/kg, po administered once daily starting from day 7 post BLM treatment and measured on day 14 by hydroxyproline method; assay type: functional, organism-based; details: time 14.0 day
Pulmonary fibroblast [28] = assay: Inhibition of TGF-beta1 induced cell stimulation in mouse pulmonary fibroblast cells assessed as reduction in alpha-SMA protein expression at 10 to 40 uM incubated for 24 hrs by Western blot analysis; assay type: functional, cell-based; details: dose 10-40 µM
Pulmonary fibroblast [29] = assay: Inhibition of TGF-beta1 induced extracellular matrix development in mouse pulmonary fibroblast cells assessed as reduction in alpha-SMA mRNA expression at 10 to 40 uM incubated for 24 hrs by RT-PCR analysis; assay type: functional, cell-based; details: dose 10-40 µM
[30] = molecular target: Mothers against decapentaplegic homolog 3 (Mus musculus) (UniProt Q8BUN5); assay: Inhibition of TGF-beta1 induced Smad3 phosphorylation in mouse pulmonary fibroblast cells at 10 to 40 uM incubated for 0.5 hrs by Western blot analysis; assay type: cell-based; details: dose 10-40 µM
Chain of Mothers against decapentaplegic homolog 3 (Mus musculus) (Q8BUN5 whole entry, looked up): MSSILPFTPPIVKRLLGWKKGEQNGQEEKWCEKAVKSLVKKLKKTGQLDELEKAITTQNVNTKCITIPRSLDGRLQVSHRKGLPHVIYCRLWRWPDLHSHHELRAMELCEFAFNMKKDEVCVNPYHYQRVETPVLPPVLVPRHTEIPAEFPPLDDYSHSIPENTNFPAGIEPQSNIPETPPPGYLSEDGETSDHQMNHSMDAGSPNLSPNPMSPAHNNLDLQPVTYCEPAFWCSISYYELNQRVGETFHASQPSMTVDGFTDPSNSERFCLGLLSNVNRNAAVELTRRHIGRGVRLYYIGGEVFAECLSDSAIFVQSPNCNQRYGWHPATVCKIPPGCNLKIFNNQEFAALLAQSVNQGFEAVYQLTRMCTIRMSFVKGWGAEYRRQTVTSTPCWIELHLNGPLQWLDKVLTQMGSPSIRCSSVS

Chain of Transforming growth factor beta-1 proprotein/Mothers against decapentaplegic homolog 3 (P04202 279-390 limits assumed): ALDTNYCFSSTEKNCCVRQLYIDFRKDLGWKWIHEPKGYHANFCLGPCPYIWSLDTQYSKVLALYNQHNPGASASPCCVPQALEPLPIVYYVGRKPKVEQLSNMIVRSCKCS
Chain of Transforming growth factor beta-1 proprotein/Mothers against decapentaplegic homolog 3 (Q8BUN5 2-425 limits assumed): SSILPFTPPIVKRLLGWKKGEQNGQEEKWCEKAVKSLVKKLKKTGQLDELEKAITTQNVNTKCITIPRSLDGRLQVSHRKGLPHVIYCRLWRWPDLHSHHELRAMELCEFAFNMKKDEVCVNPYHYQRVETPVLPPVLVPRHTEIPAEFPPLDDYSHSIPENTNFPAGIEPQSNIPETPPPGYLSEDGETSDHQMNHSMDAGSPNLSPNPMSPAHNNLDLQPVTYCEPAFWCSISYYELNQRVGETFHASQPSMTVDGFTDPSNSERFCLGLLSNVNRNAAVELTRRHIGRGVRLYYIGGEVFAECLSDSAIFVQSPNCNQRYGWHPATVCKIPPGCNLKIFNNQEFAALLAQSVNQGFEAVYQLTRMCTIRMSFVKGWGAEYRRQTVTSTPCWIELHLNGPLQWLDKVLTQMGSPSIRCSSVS
Chain of Transforming growth factor beta-1 proprotein/Mothers against decapentaplegic homolog 3 (Mus musculus) (P04202 279-390 limits assumed): as the sequence (P04202 279-390 limits assumed) above
Chain of Transforming growth factor beta-1 proprotein/Mothers against decapentaplegic homolog 3 (Mus musculus) (Q8BUN5 2-425 partner limits assumed): as the sequence (Q8BUN5 2-425 limits assumed) above

In the case of `C=C[C@]1(C)C[C@@H](O)[C@]2(C)[C@H](C)CC[C@]3(C/C(=C\c4ccc(C(=O)NC5CCCCC5)cc4)C(=O)[C@H]32)[C@@H](C)[C@@H]1O`, the Activity [1] is reported as 58.4%, the MIC (Staphylococcus aureus) is reported as greater than 1000 µg/mL and the MIC (Escherichia coli) is reported as greater than 1000 µg/mL. For the same compound, the MIC (Bacillus subtilis) was greater than 1000 µg/mL, the IC50 [2] was 160 µM and the IC50 [3] was 60.3 µM. For the same compound, the Cmax [4] was 2270 ng/mL, the AUC(0-t) at 12 h [5] was 2900 ng·h/mL and the Tmax [6] was 39.6 s. It also gave a half-life [7] of 29.3 min, a clearance [8] of 27.1 mL/min and a Cmax [9] of 2160 ng/mL. It also gave an AUC(0-t) at 18 h [10] of 17800 ng·h/mL, a Tmax [11] of 3.33 h and a half-life [12] of 552 min. The CL/F [13] was 7.62 mL/min, the bioavailability [14] was 61.2% and the Activity [15] was “Non-Toxic”. The Activity [16] was “Non-Toxic”, the Activity [17] was “Non-Toxic” and the Activity [18] was “Non-Toxic”. The Activity (Mus musculus [19]) was “Active”, the Activity (Mus musculus [20]) was 76.47% and the Activity (Mus musculus [21]) was 38.85%. For the same compound, the Activity (Mus musculus [22]) was 51.03%, the Activity (Mus musculus [23]) was “Active” and the Activity (Mus musculus [24]) was “Active”. For the same compound, the Activity (Mus musculus [25]) was “Active”, the Activity (Mus musculus [26]) was “Active” and the Activity (Mus musculus [27]) was “Active”. The inhibition (Pulmonary fibroblast [28]) was “Active”, the inhibition (Pulmonary fibroblast [29]) was “Active” and the inhibition [30] was “Active”.
